We go through one molecule from patent publication US20040028623A1, “Formulations for the removal of dental plaque, tartar and dental stains” (priority 2000, published 2004).

The conditions of assay [1]: aqueous solution of 2%, 30° C, without light, tooth rinsed and lightly brushed and solution changed every two days. As for the experimental part:
The in vitro evaluation of anti-tartar activity was carried out on an extracted tooth. The amount of tartar on said tooth was quantified before the test. The tooth was then immersed. Into an aqueous solution of 2% glutathlone and kept in a closed vessel without light at 30° C. Every two days said tooth was rinsed and lightly brushed and the solution was changed.

How the values of assay [2] were obtained:
In another clinical test five volunteers were chose, all male and smokers, characterized by a strong formation of dental calculus (tartar), especially IN the zone of the lingual face of the lower incisors. Each volunteer underwent an application of 500 mg of pure glutathione in powder on the lingual face of the lower incisors by means of a single-tuft toothbrush with medium bristles, followed by a tooth brushing for ten minutes with the same toothbrush. After a rinse with water the operation was repeated, always for ten minutes using a further 500 mg of glutathione.

The procedure of assay [3]: In another clinical test five volunteers were chose, all male and smokers, characterized by a strong formation of dental calculus (tartar), especially in the zone of the lingual face of the lower incisors. Each volunteer underwent an application of 200 mg of pure glutathione in powder on the lingual face of the lower incisors by means of a single-tuft toothbrush with medium bristles, followed-by a tooth brushing for ten minutes with the same toothbrush. After a rinse with water the operation was repeated, always for ten minutes using a further 200 mg of glutathione.
This is another data set of the same source.

Where two headings read alike, the source gives them in different places.

`N[C@@H](CCC(=O)N[C@@H](CS)C(=O)NCC(=O)O)C(=O)O` [glutathione]: in assay [1], the “time until removal of tartar was completed” value was “two to three weeks” and the “time until removal of tartar was evident” value is given as “after only four days”. Moreover, in assay [2] (all five volunteers, zones where brushing had been carried out, 2 x 500 mg powder, 2 x ten minutes brushing), the “removal of dental calculus (tartar)” value was “complete removal”. The “residual dental calculus (tartar)” value in assay [2] (sub-gingival and interstitial zones where brushing had not been properly carried out, 2 x 500 mg) is given as “presence of residual dental calculus (tartar)”. Moreover, the “reduction of dental calculus (tartar)” value in assay [3] (all five volunteers, zones where brushing had been carried out, 2 x 200 mg powder, 2 x ten minutes brushing) is listed as “consistent reduction”. In assay [3] (sub-gingival and interstitial zones where brushing had not been properly carried out, 2 x 200 mg), the “residual dental calculus (tartar)” value is reported as “presence of residual dental calculus (tartar)”.
